This note sets out measurements from ChEMBL document CHEMBL4190403, “Design, synthesis, and biological evaluation of pyrazole derivatives containing acetamide bond as potential BRAFV600E inhibitors” (Bioorg Med Chem Lett, 2018).

For assay [1], the system named is A-375. Kind of assay: Induction of apoptosis in human A375 cells assessed as necrotic cells at 1 uM after 24 hrs by Annexin V-FITC/propidium iodide staining based flow cytometry (reference value: 0.635 to 3.12%). Type of assay: functional.
In assay [2] the test system is A-375. Description: Cell cycle arrest in human A375 cells assessed as accumulation at S phase at 3 uM after 36 hrs by propidium iodide staining-based flow cytometry (reference value: 20.08 to 31.09%). In kind it is functional.
Assay [3] relates to A-375. Description: Cell cycle arrest in human A375 cells assessed as accumulation at G1 phase at 3 uM after 24 hrs by propidium iodide staining-based flow cytometry (reference value: 59.02 to 60.22%). In kind it is functional.
Assay [4] deals with A-375. Kind of assay: Induction of apoptosis in human A375 cells at 3 uM by Annexin V-FITC/propidium iodide staining based flow cytometry. In kind it is functional, cell-based. The following applies: TDE = time-dependent effect.
The subject of assay [5] is A-375. Kind of assay: Induction of apoptosis in human A375 cells assessed as late apoptotic cells at 3 uM after 24 hrs by Annexin V-FITC/propidium iodide staining based flow cytometry (reference value: 3.80 to 4.61%). Type of assay: functional.
Assay [6] concerns the target Serine/threonine-protein kinase B-raf (Mus musculus, UniProt P28028, V600E). Kind of assay: Inhibition of full-length GST-tagged mouse BRAF V600E mutant using recombinant human full length N-terminal His-tagged MEK1 as substrate preincubated for 1 hr followed by substrate addition measured after 25 mins by Nu-page gel-based phosphor screen analysis.
For assay [7], the system named is A-375. Description: Cell cycle arrest in human A375 cells assessed as accumulation at S phase at 3 uM after 24 hrs by propidium iodide staining-based flow cytometry (reference value: 20.08 to 31.09%). In kind it is functional.
Assay [8] has as its system A-375. Description: Cell cycle arrest in human A375 cells assessed as accumulation at S phase at 10 uM after 24 hrs by propidium iodide staining-based flow cytometry (reference value: 20.08 to 31.09%). In kind it is functional.
The subject of assay [9] is A-375. Kind of assay: Antiproliferative activity against human A375 cells harboring BRAF V600E mutant after 24 hrs by MTT assay. In kind it is functional, cell-based. The following applies: A-375, 24 h.
Assay [10] deals with A-375. Description: Cell cycle arrest in human A375 cells assessed as accumulation at G1 phase at 3 uM by propidium iodide staining-based flow cytometry. In kind it is functional. The note with it: TDE = time-dependent effect.
The subject of assay [11] is A-375. Description: Induction of apoptosis in human A375 cells assessed as early apoptotic cells at 10 uM after 24 hrs by Annexin V-FITC/propidium iodide staining based flow cytometry (reference value: 1.22 to 1.64%). Type of assay: functional.

Serine/threonine-protein kinase B-raf, sequence (P28028 whole entry, looked up, stated change not applied): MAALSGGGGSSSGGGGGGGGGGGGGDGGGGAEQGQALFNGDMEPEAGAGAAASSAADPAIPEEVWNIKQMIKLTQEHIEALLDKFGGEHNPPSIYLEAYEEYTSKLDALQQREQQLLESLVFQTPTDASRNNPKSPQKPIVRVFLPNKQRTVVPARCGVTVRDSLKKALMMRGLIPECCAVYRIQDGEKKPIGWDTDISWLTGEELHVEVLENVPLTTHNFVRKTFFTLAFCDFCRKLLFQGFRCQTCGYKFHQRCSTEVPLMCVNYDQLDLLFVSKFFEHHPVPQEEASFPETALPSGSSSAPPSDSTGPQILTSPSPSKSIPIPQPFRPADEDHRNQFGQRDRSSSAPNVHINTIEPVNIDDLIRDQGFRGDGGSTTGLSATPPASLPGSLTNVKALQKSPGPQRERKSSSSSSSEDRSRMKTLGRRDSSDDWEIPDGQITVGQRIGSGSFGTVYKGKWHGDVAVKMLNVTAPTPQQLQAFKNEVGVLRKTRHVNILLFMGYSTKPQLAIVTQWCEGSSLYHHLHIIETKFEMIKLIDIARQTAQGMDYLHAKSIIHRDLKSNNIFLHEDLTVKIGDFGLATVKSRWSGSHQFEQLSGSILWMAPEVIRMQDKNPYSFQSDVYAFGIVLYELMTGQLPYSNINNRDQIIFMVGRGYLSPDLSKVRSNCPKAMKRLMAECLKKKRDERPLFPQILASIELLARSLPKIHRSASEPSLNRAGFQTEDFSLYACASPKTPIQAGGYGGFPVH

In the case of `COc1ccc(-n2cc(NC(=O)Cn3ccc(-c4cccc(Cl)c4)n3)cn2)cc1`, the Activity in the assay with A-375 [1] is 4.51%; with A-375 [2], 52.38%; in the assay on A-375 [3], 40.19 - 43.48%; in the assay with A-375 [4] it was “Tde”; in the assay on A-375 [5], 19.1 - 29.2%; in the assay on A-375 [7], 43.96 - 45.74%. The Activity with A-375 [8] was 47.03%; with A-375 [10], “Tde”; in the assay with A-375 [11] it was 1.81%. Further, the half-maximal inhibitory concentration (IC50) in assay [6] was 100 nM; with A-375 [9], 960 nM.
